{"source": "patent US20020155422A1", "about": "“Methods for analyzing dynamic changes in cellular informatics and uses therefor” (priority 2000, published 2002)", "tested_on": "HL-60 cells", "test": "Gene expression profiling (Resgen microarray filters) of HL-60 cells stimulated to differentiate into neutrophils, time course", "assay_type": "cell-based, human", "conditions": "for Normalized expression level of gene W95428 / Normalized expression level of gene W96205 / Normalized expression level of gene W96450 / Normalized expression level of gene W96463: HL-60 cells, retinoic acid induced switch, normalized to T = 0 level", "text": "Given the value of understanding the genetic basis of the switch between different hematopoietic stem cell lineages, a well-characterized human pluripotent precursor cell line—the HL 60 promyeloid leukemia cell line—provides a useful model system. HL 60 precursors cells can be induced to switch to granulocytes, monocytes, or macrophages based on alterations in experimental conditions. […] Established molecular methods (e.g., immunocytochemistry, FACS cell sorting, SDS-PAGE, Western blots, Northern blots, or other biochemical or molecular biological techniques) can be used to identify cells that have switched, between different phenotypes. These methods can be used to identify experimental conditions necessary to optimally acquire the baseline data for analysis according to methods of the invention, including information on the dose-response for the transition between different cell states and the time required for a stimulated cell to undergo the transition and reach a new steady state. Additional insight into the molecules involved in cell regulation may be gained by carrying out analysis of cells under various experimental conditions that induce forward and reverse transitions between the same two states by adding or removing a common stimulus as well as by analysis of convergent transition processes that involve switching to a common cell state using different stimuli and divergent transition process that involve switching from one state to two different attractor states using different perturbations. […] The latter would lead to a perturbation of the attractor state to various degrees with subsequent relaxation back to the same attractor along distinct trajectories.\nCell state transitions that may be studied and characterized in the HL60 model system include: A) induction of a transition from HL60 precursor to a granulocyteby treatment with DMSO; B) induction of a reverse transition from granulocyte to HL60 by removing DMSO; C) induction of a transition from HL60 precursor to granulocyte using all-trans-retinoid acid; D) induction of a reverse transition from granulocytes to HL60 precursors by removing all-trans-retinoid acid; E) induction of a transition from HL60 precursors to a monocyte(s) by addition of NaButyrate; and F) induction of a transition from HL60 precursors to a macrophage(s) by addition of TPA. This approach was used to analyze two convergent processes of HL-60 cell transition from precursor to neutrophil states after stimulation with DMSO and retinoic acid (transitions A and C, respectively). In this experiment, only a relatively low number of genes (<300) were analyzed over 7 time points.\nHL-60 cells (1.5×10^6 cells/ml) were stimulated in parallel cultures to differentiate into neutrophils along two different but convergent paths by treatment with DMSO (S1 path) or retinoic acid (S2 path). At each time point, RNA was harvested from both cultures using RNeasy extraction kit (Qiagen) and subjected to gene expression profiling using Resgen microarray filters from Research Genetics/Invitrogen (the gene filter contains 5000 human cDNAs that were pre-spotted on a 5×7 cm nylon membrane and then hybridized with radioactively labeled cDNA made from total cellular RNA). […] Expression levels for each gene were normalized to the 0 time point level for that gene (untreated reference). Genes with expression levels below a 4 fold change relative to the 0 reference were excluded from the analysis. In this analysis, an inter-trajectory distance representation was used to compare different trajectories with the cell state space and to identify common paths in cell state transition processes. For each time point, a state vector of length 281 genes was defined for each of the two processes S1(t) and S2(t). […]", "data": [{"smiles": "CC1=C(/C=C/C(C)=C/C=C/C(C)=C/C(=O)O)C(C)(C)CCC1", "note": "[retinoic acid]", "values": [{"measurement": "Normalized expression level of gene W95428", "setting": "2 hours", "result": 1.049}, {"measurement": "Normalized expression level of gene W96205", "setting": "2 hours", "result": 0.9014}, {"measurement": "Normalized expression level of gene W96450", "setting": "2 hours", "result": 0.8141}, {"measurement": "Normalized expression level of gene W96463", "setting": "2 hours", "result": 0.9136}, {"measurement": "Normalized expression level of gene W95428", "setting": "Day 2", "result": 1.003}, {"measurement": "Normalized expression level of gene W96205", "setting": "Day 2", "result": 0.931}, {"measurement": "Normalized expression level of gene W96450", "setting": "Day 2", "result": 0.8573}, {"measurement": "Normalized expression level of gene W96463", "setting": "Day 2", "result": 0.9058}, {"measurement": "Normalized expression level of gene W95428", "setting": "Day 3", "result": 0.9532}, {"measurement": "Normalized expression level of gene W96205", "setting": "Day 3", "result": 0.9937}, {"measurement": "Normalized expression level of gene W96450", "setting": "Day 3", "result": 0.6712}, {"measurement": "Normalized expression level of gene W96463", "setting": "Day 3", "result": 0.8109}, {"measurement": "Normalized expression level of gene W95428", "setting": "Day 4", "result": 0.9982}, {"measurement": "Normalized expression level of gene W96205", "setting": "Day 4", "result": 0.9089}, {"measurement": "Normalized expression level of gene W96450", "setting": "Day 4", "result": 0.8387}, {"measurement": "Normalized expression level of gene W96463", "setting": "Day 4", "result": 0.8458}, {"measurement": "Normalized expression level of gene W95428", "setting": "Day 5", "result": 0.9605}, {"measurement": "Normalized expression level of gene W96205", "setting": "Day 5", "result": 0.9604}, {"measurement": "Normalized expression level of gene W96450", "setting": "Day 5", "result": 1.17}, {"measurement": "Normalized expression level of gene W96463", "setting": "Day 5", "result": 0.841}, {"measurement": "Normalized expression level of gene W95428", "setting": "Day 7", "result": 0.954}, {"measurement": "Normalized expression level of gene W96205", "setting": "Day 7", "result": 0.9732}, {"measurement": "Normalized expression level of gene W96450", "setting": "Day 7", "result": 1.087}, {"measurement": "Normalized expression level of gene W96463", "setting": "Day 7", "result": 0.8014}]}, {"smiles": "C[S+](C)[O-]", "note": "[DMSO]", "values": [{"measurement": "inter-trajectory distance DT(t) (squared Euclidean distance between state vectors S1(t), S2(t))", "setting": "HL-60 cells 1.5×10^6 cells/ml, DMSO (S1 path) versus retinoic acid (S2 path), 281 genes, 7 time points, FIG. 7", "result": "converge on the same differentiation state"}]}]}
